According to ChEMBL document CHEMBL4507289, “Data for DCP probe GSM1” (2021):
Activity calls are given as the source filed them. The rule behind the calls is not given here.

Tests used:
[1] = target: Sodium-dependent serotonin transporter (Homo sapiens, UniProt P31645); assay: GPCRScan assay: inhibition of SERT; parameters: radioligand conc. used [nm] 1.5 – 2.0, parental cells stable HEK
[2] = target: Amyloid-beta precursor protein (Homo sapiens, UniProt P05067); assay: Aβ40 inhibition assay
[3] = test system: Tyrosine-protein kinase ABL1 (Homo sapiens), P00519 [Q252H]; conditions: Compound concentration 1000.0 nM
[4] = test system: Tyrosine-protein kinase ABL1 (Homo sapiens), P00519 [T315I]; conditions: Compound concentration 1000.0 nM
[5] = target: Ankyrin repeat and protein kinase domain-containing protein 1 (Homo sapiens) (UniProt Q8NFD2); conditions: Compound concentration 1000.0 nM
[6] = target: Mitogen-activated protein kinase kinase kinase 6 (Homo sapiens) (UniProt O95382); conditions: Compound concentration 1000.0 nM
[7] = target: Bone morphogenetic protein receptor type-1A (Homo sapiens) (UniProt P36894); conditions: Compound concentration 1000.0 nM
[8] = target: Calcium/calmodulin-dependent protein kinase type II subunit beta (Homo sapiens) (UniProt Q13554); conditions: Compound concentration 1000.0 nM
[9] = target: Calcium/calmodulin-dependent protein kinase kinase 1 (Homo sapiens) (UniProt Q8N5S9); conditions: Compound concentration 1000.0 nM
[10] = target: Citron Rho-interacting kinase (Homo sapiens) (UniProt O14578); conditions: Compound concentration 1000.0 nM
[11] = target: Tyrosine-protein kinase CSK (Homo sapiens) (UniProt P41240); conditions: Compound concentration 1000.0 nM
[12] = target: Casein kinase I isoform gamma-2 (Homo sapiens) (UniProt P78368); conditions: Compound concentration 1000.0 nM
[13] = target: Serine/threonine-protein kinase MRCK gamma (Homo sapiens) (UniProt Q6DT37); conditions: Compound concentration 1000.0 nM
[14] = target: Serine/threonine-protein kinase 17B (Homo sapiens) (UniProt O94768); conditions: Compound concentration 1000.0 nM
[15] = target: Ephrin type-A receptor 7 (Homo sapiens) (UniProt Q15375); conditions: Compound concentration 1000.0 nM
[16] = target: Ephrin type-B receptor 1 (Homo sapiens) (UniProt P54762); conditions: Compound concentration 1000.0 nM
[17] = target: Ephrin type-B receptor 2 (Homo sapiens) (UniProt P29323); conditions: Compound concentration 1000.0 nM
[18] = target: Tyrosine-protein kinase Fer (Homo sapiens) (UniProt P16591); conditions: Compound concentration 1000.0 nM
[19] = target: Fibroblast growth factor receptor 3 (Homo sapiens) (UniProt P22607); conditions: Compound concentration 1000.0 nM
[20] = target: Vascular endothelial growth factor receptor 3 (Homo sapiens) (UniProt P35916); conditions: Compound concentration 1000.0 nM
[21] = target: Cyclin-G-associated kinase (Homo sapiens) (UniProt O14976); conditions: Compound concentration 1000.0 nM
[22] = target: Homeodomain-interacting protein kinase 2 (Homo sapiens) (UniProt Q9H2X6); conditions: Compound concentration 1000.0 nM
[23] = target: Mitogen-activated protein kinase 9 (Homo sapiens) (UniProt P45984); conditions: Compound concentration 1000.0 nM
[24] = test system: Mast/stem cell growth factor receptor Kit (Homo sapiens), P10721 [V559D,V654A]; conditions: Compound concentration 1000.0 nM
[25] = target: Mitogen-activated protein kinase kinase kinase 13 (Homo sapiens) (UniProt O43283); conditions: Compound concentration 1000.0 nM
[26] = target: Serine/threonine-protein kinase MAK (Homo sapiens) (UniProt P20794); conditions: Compound concentration 1000.0 nM
[27] = target: Mitogen-activated protein kinase kinase kinase 1 (Homo sapiens) (UniProt Q13233); conditions: Compound concentration 1000.0 nM
[28] = target: Serine/threonine-protein kinase MRCK alpha (Homo sapiens) (UniProt Q5VT25); conditions: Compound concentration 1000.0 nM
[29] = target: Serine/threonine-protein kinase Nek5 (Homo sapiens) (UniProt Q6P3R8); conditions: Compound concentration 1000.0 nM
[30] = target: Serine/threonine-protein kinase NIM1 (Homo sapiens) (UniProt Q8IY84); conditions: Compound concentration 1000.0 nM
[31] = target: Phosphatidylinositol 4-phosphate 5-kinase type-1 gamma (Homo sapiens) (UniProt O60331); conditions: Compound concentration 1000.0 nM
[32] = target: Serine/threonine-protein kinase N2 (Homo sapiens) (UniProt Q16513); conditions: Compound concentration 1000.0 nM
[33] = target: Protein kinase C epsilon type (Homo sapiens) (UniProt Q02156); conditions: Compound concentration 1000.0 nM
[34] = target: Serine/threonine-protein kinase RIO2 (Homo sapiens) (UniProt Q9BVS4); conditions: Compound concentration 1000.0 nM
[35] = target: Receptor-interacting serine/threonine-protein kinase 4 (Homo sapiens) (UniProt P57078); conditions: Compound concentration 1000.0 nM
[36] = target: Rho-associated protein kinase 1 (Homo sapiens) (UniProt Q13464); conditions: Compound concentration 1000.0 nM
[37] = target: Proto-oncogene tyrosine-protein kinase ROS (Homo sapiens) (UniProt P08922); conditions: Compound concentration 1000.0 nM
[38] = target: Serine/threonine-protein kinase 36 (Homo sapiens) (UniProt Q9NRP7); conditions: Compound concentration 1000.0 nM
[39] = target: Mitogen-activated protein kinase kinase kinase 7 (Homo sapiens) (UniProt O43318); conditions: Compound concentration 1000.0 nM
[40] = target: Serine/threonine-protein kinase tousled-like 2 (Homo sapiens) (UniProt Q86UE8); conditions: Compound concentration 1000.0 nM
[41] = target: Activated CDC42 kinase 1 (Homo sapiens) (UniProt Q07912); conditions: Compound concentration 1000.0 nM
[42] = target: NT-3 growth factor receptor (Homo sapiens) (UniProt Q16288); conditions: Compound concentration 1000.0 nM
[43] = target: Serine/threonine-protein kinase VRK2 (Homo sapiens) (UniProt Q86Y07); conditions: Compound concentration 1000.0 nM
[44] = target: Serine/threonine-protein kinase WNK1 (Homo sapiens) (UniProt Q9H4A3); conditions: Compound concentration 1000.0 nM
[45] = target: 5-hydroxytryptamine receptor 2B (Homo sapiens) (UniProt P41595); conditions: Compound concentration 10.0 uM

Chain of Sodium-dependent serotonin transporter (P31645 whole entry): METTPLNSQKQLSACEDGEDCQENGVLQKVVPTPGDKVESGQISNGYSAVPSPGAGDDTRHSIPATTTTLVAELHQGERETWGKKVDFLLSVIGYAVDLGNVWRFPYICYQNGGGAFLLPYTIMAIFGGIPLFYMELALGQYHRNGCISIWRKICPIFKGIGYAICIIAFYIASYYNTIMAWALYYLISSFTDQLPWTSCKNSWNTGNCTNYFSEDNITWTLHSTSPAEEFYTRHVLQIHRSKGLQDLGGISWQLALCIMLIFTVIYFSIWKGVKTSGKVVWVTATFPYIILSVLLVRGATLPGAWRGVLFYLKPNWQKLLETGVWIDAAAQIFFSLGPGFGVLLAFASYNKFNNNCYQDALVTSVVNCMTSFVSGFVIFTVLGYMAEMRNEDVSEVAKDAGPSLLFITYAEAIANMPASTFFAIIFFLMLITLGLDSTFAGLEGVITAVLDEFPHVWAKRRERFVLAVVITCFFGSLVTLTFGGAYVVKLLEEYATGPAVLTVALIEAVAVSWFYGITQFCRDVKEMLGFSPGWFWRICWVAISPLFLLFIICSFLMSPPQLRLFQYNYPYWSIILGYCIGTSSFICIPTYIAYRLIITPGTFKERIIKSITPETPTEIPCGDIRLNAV
Chain of Serine/threonine-protein kinase tousled-like 2 (Homo sapiens) (Q86UE8 whole entry, looked up): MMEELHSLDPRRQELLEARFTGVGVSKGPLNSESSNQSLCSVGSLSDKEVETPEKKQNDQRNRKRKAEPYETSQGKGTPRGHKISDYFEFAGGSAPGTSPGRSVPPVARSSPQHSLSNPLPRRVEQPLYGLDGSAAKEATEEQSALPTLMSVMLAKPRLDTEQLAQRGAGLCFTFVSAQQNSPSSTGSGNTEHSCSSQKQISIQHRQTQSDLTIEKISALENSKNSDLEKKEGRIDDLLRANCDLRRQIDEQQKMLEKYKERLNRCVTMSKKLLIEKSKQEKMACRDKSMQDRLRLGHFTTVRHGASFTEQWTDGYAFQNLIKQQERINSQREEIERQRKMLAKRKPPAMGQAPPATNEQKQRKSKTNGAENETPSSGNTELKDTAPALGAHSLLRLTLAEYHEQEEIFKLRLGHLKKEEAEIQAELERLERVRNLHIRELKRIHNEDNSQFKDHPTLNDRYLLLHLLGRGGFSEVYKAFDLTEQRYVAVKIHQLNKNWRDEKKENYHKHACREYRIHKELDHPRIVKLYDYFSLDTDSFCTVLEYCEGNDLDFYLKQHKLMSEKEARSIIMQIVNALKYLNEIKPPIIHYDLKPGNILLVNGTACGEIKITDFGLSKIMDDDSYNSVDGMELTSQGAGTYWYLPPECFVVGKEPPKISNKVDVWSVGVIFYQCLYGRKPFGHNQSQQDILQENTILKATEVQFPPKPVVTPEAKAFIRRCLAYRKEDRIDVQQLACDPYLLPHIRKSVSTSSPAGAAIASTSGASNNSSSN
Chain of Bone morphogenetic protein receptor type-1A (Homo sapiens) (P36894 whole entry): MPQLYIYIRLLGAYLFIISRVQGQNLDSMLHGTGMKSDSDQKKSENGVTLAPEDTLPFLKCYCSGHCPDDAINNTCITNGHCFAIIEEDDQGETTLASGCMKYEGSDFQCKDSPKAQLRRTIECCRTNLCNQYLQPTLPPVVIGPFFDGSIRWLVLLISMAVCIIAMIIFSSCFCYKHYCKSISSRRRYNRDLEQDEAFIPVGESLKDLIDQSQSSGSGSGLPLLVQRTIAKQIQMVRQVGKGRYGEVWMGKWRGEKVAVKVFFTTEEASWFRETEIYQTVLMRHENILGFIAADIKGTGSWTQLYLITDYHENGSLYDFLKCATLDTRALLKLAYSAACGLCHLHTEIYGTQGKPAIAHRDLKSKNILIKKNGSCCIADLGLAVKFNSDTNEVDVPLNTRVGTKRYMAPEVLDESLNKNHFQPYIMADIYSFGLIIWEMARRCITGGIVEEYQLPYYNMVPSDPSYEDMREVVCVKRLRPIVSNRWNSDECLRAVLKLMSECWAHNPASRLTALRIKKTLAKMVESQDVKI
Chain of Serine/threonine-protein kinase VRK2 (Homo sapiens) (Q86Y07 whole entry): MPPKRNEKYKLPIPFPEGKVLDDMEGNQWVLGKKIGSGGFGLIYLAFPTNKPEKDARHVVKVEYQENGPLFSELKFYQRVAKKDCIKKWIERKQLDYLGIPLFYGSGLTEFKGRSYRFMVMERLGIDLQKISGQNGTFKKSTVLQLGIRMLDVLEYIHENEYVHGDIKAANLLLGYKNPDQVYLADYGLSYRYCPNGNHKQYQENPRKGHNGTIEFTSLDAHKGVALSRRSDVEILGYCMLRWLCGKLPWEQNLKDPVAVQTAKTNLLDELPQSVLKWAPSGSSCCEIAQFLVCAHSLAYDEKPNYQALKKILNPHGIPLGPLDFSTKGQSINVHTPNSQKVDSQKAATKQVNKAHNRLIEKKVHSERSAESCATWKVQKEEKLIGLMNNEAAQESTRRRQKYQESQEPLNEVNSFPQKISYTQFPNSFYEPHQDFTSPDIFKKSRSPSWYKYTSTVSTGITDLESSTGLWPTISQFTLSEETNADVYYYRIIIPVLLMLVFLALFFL
Chain of Receptor-interacting serine/threonine-protein kinase 4 (Homo sapiens) (P57078 whole entry): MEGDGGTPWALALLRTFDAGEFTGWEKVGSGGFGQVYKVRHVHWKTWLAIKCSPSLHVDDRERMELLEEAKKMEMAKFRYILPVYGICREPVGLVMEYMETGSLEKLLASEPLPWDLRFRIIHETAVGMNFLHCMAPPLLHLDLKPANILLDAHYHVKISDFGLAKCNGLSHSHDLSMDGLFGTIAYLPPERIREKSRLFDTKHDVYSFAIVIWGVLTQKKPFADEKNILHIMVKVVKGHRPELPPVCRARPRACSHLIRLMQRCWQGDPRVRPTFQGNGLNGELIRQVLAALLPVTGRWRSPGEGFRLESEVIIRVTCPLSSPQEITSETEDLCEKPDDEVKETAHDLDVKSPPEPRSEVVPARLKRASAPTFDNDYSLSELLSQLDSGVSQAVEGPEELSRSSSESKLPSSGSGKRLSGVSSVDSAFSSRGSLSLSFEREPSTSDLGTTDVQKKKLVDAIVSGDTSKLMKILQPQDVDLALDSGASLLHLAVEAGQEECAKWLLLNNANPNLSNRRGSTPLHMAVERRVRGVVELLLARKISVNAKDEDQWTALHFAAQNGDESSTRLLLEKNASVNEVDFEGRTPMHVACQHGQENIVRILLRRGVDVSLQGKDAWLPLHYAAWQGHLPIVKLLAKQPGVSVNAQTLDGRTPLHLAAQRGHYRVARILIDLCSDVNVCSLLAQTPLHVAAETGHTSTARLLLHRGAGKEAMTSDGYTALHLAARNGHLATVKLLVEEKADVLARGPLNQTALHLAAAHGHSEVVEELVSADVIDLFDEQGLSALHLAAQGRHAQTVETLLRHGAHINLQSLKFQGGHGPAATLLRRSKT
Chain of Mast/stem cell growth factor receptor Kit (Homo sapiens), P10721 [V559D,V654A] (P10721 whole entry V559D/V654A): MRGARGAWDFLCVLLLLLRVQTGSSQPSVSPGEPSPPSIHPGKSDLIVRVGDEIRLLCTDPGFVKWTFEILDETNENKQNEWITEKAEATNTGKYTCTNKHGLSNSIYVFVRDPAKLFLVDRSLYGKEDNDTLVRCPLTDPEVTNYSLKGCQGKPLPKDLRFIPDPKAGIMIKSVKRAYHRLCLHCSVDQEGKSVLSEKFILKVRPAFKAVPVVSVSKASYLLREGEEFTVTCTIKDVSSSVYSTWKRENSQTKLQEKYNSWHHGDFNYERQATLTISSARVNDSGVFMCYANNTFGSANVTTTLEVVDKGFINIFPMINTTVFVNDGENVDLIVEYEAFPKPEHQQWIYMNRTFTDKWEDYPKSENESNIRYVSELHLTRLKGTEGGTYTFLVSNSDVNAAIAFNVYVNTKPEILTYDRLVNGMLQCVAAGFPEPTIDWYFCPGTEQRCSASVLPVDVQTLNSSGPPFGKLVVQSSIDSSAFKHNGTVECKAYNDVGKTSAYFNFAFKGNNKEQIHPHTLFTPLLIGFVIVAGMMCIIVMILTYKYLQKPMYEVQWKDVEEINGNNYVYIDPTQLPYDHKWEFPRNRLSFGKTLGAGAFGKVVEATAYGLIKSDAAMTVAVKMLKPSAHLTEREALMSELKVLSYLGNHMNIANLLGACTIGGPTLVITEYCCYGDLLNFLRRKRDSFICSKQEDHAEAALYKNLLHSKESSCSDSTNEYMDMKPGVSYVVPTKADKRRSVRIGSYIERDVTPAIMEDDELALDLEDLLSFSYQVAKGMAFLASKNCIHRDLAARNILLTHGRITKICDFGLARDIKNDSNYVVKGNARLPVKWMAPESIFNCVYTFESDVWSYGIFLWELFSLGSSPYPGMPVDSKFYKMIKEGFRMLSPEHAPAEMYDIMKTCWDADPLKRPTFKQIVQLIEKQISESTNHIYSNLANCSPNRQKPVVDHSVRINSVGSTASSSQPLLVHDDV
Chain of Tyrosine-protein kinase Fer (Homo sapiens) (P16591 whole entry, looked up): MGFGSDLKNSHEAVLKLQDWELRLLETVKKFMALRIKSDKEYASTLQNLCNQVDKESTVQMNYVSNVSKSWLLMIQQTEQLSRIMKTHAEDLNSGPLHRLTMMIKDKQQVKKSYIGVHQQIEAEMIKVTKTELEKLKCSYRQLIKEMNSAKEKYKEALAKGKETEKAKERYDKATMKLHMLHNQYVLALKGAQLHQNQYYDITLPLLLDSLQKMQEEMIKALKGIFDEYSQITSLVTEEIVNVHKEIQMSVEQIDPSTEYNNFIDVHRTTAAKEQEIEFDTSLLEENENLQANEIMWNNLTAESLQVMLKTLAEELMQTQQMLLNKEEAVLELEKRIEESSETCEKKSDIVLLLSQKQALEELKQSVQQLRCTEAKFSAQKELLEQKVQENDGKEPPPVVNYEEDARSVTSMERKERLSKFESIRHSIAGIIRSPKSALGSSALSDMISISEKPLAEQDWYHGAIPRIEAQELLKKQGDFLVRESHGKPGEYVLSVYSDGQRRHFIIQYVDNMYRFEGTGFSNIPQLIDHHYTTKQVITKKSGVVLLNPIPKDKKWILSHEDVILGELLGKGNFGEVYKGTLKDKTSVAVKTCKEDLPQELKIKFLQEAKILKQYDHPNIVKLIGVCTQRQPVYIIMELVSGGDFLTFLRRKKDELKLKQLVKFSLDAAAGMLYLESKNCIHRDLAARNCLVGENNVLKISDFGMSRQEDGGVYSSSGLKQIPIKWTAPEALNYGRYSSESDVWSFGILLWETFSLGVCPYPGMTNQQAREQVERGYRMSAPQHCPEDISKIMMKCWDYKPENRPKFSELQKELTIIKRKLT

For `COc1cc(-c2cn([C@H]3CCc4ccccc4N(CC(F)(F)F)C3=O)nn2)ccc1-n1ccc(C)n1`, the Ki ([1]; read-out: Ki) was 391 nM, the Ki ([1]; read-out: pKi (converted)) was 380 nM and the IC50 [2] was > 10000 nM (not active). The residual activity [3] was 90%, the residual activity [4] was 77% and the residual activity [5] was 78%. For the same compound, the residual activity [6] was 53%, the residual activity [7] was 89% and the residual activity [8] was 97%. The residual activity [9] was 100%, the residual activity [10] was 100% and the residual activity [11] was 100%. The residual activity [12] was 100%, the residual activity [13] was 100% and the residual activity [14] was 100%. For the same compound, the residual activity [15] was 100%, the residual activity [16] was 100% and the residual activity [17] was 100%. It also gave a residual activity [18] of 100%, a residual activity [19] of 100% and a residual activity [20] of 100%. It also gave a residual activity [21] of 92%, a residual activity [22] of 82% and a residual activity [23] of 64%. The residual activity [24] was 100%, the residual activity [25] was 84% and the residual activity [26] was 99%. For the same compound, the residual activity [27] was 72%, the residual activity [28] was 100% and the residual activity [29] was 100%. For the same compound, the residual activity [30] was 80%, the residual activity [31] was 100% and the residual activity [32] was 98%. The residual activity [33] was 100%, the residual activity [34] was 96% and the residual activity [35] was 52%. It also gave a residual activity [36] of 100%, a residual activity [37] of 100% and a residual activity [38] of 79%. For the same compound, the residual activity [39] was 86%, the residual activity [40] was 97% and the residual activity [41] was 100%. It also gave a residual activity [42] of 98%, a residual activity [43] of 100% and a residual activity [44] of 100%. For the same compound, the inhibition [45] was 6.39%.

In the case of `COc1cc(-c2cn([C@H]3CCc4c(F)cccc4N(CC(F)(F)F)C3=O)nn2)ccc1-n1cnc(C)c1`, the Ki ([1]; read-out: Ki) is reported as 24 nM, the IC50 [2] is reported as 131 nM (active) and the residual activity [3] is reported as 95%. For the same compound, the residual activity [4] was 85%, the residual activity [5] was 100% and the residual activity [6] was 98%. It also gave a residual activity [7] of 100%, a residual activity [8] of 100% and a residual activity [9] of 100%. The residual activity [10] was 100%, the residual activity [11] was 100% and the residual activity [12] was 100%. For the same compound, the residual activity [13] was 100%, the residual activity [14] was 99% and the residual activity [15] was 100%. It also gave a residual activity [16] of 100%, a residual activity [17] of 100% and a residual activity [18] of 100%. It also gave a residual activity [19] of 100%, a residual activity [20] of 100% and a residual activity [21] of 88%. The residual activity [22] was 100%, the residual activity [23] was 92% and the residual activity [24] was 97%. It also gave a residual activity [25] of 75%, a residual activity [26] of 100% and a residual activity [27] of 100%. It also gave a residual activity [28] of 100%, a residual activity [29] of 90% and a residual activity [30] of 78%. It also gave a residual activity [31] of 90%, a residual activity [32] of 100% and a residual activity [33] of 100%. The residual activity [34] was 100%, the residual activity [35] was 56% and the residual activity [36] was 100%. It also gave a residual activity [37] of 100%, a residual activity [38] of 100% and a residual activity [39] of 100%. The residual activity [40] was 100%, the residual activity [41] was 100% and the residual activity [42] was 95%. For the same compound, the residual activity [43] was 100%, the residual activity [44] was 100% and the inhibition [45] was 5.58%.
